According to PubChem BioAssay AID1963966 (Molecular Pharmacology Branch, DTP, NCI, 2024):

Test system: 935938-334-R-J1-PDC spheroids with HUVEC/MSC, viability
Experiment: Anticancer human tumor 935938-334-R-J1-PDC patient-derived small intestine adenocarcinoma cell line growth inhibition [PI3K]
Settings: for IC50: curve of first compound; for viability, T/C: stronger effect = lower value
In short: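 Three cell types, namely tumor cells, endothelial cells and mesenchymal stem cells, formed each spheroid. Combinations with four PI3K inhibitors were screened at clinically achievable concentrations decreasing by half-log, and spheroid viability was recorded.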
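Note: compound exposure lasted seven days before viability was read.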
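Throughout, for viability, T/C: percent of vehicle DMSO treated spheroid viability so 100% = untreated.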

CNC(=O)c1ccc(N2C(=S)N(c3ccc(C#N)c(C(F)(F)F)c3)C(=O)C2(C)C)cc1F + CC(Nc1ncnc2nc[nH]c12)c1cc2cccc(Cl)c2c(=O)n1-c1ccccc1
IC50 (second compound 0.0316 µM): > 10000 nM | IC50 (second compound 0.1 µM): > 10000 nM | IC50 (second compound 0.316 µM): > 10000 nM | IC50 (second compound 1 µM): > 10000 nM | IC50 (second compound 3.16 µM): > 10000 nM | IC50 (second compound 10 µM): > 10000 nM | viability, T/C (second compound 0.0316 µM, first compound 0.0316 µM): 102% | viability, T/C (second compound 0.0316 µM, first compound 0.1 µM): 94.8% | viability, T/C (second compound 0.0316 µM, first compound 0.316 µM): 136% | viability, T/C (second compound 0.0316 µM, first compound 1 µM): 85.2% | viability, T/C (second compound 0.0316 µM, first compound 3.16 µM): 78.2% | viability, T/C (second compound 0.0316 µM, first compound 10 µM): 133% | viability, T/C (second compound 0.1 µM, first compound 0.0316 µM): 98.1% | viability, T/C (second compound 0.1 µM, first compound 0.1 µM): 84.4% | viability, T/C (second compound 0.1 µM, first compound 0.316 µM): 102% | viability, T/C (second compound 0.1 µM, first compound 1 µM): 90% | viability, T/C (second compound 0.1 µM, first compound 3.16 µM): 81.3% | viability, T/C (second compound 0.1 µM, first compound 10 µM): 84.7% | viability, T/C (second compound 0.316 µM, first compound 0.0316 µM): 100% | viability, T/C (second compound 0.316 µM, first compound 0.1 µM): 72.2% | viability, T/C (second compound 0.316 µM, first compound 0.316 µM): 95.3% | viability, T/C (second compound 0.316 µM, first compound 1 µM): 83.6% | viability, T/C (second compound 0.316 µM, first compound 3.16 µM): 95% | viability, T/C (second compound 0.316 µM, first compound 10 µM): 65.4% | viability, T/C (second compound 1 µM, first compound 0.0316 µM): 97.4% | viability, T/C (second compound 1 µM, first compound 0.1 µM): 83.9% | viability, T/C (second compound 1 µM, first compound 0.316 µM): 70.8% | viability, T/C (second compound 1 µM, first compound 1 µM): 69.7% | viability, T/C (second compound 1 µM, first compound 3.16 µM): 96% | viability, T/C (second compound 1 µM, first compound 10 µM): 73.5% | viability, T/C (second compound 3.16 µM, first compound 0.0316 µM): 72.8% | viability, T/C (second compound 3.16 µM, first compound 0.1 µM): 91.4% | viability, T/C (second compound 3.16 µM, first compound 0.316 µM): 103% | viability, T/C (second compound 3.16 µM, first compound 1 µM): 99.9% | viability, T/C (second compound 3.16 µM, first compound 3.16 µM): 61% | viability, T/C (second compound 3.16 µM, first compound 10 µM): 81.8% | viability, T/C (second compound 10 µM, first compound 0.0316 µM): 80.8% | viability, T/C (second compound 10 µM, first compound 0.1 µM): 92% | viability, T/C (second compound 10 µM, first compound 0.316 µM): 72.3% | viability, T/C (second compound 10 µM, first compound 1 µM): 71.6% | viability, T/C (second compound 10 µM, first compound 3.16 µM): 75.3% | viability, T/C (second compound 10 µM, first compound 10 µM): 63.9%

Cn1cnc2c(F)c(Nc3ccc(Br)cc3Cl)c(C(=O)NOCCO)cc21 + CC(Nc1ncnc2nc[nH]c12)c1cc2cccc(Cl)c2c(=O)n1-c1ccccc1
IC50 (second compound 0.0316 µM): 68.7 nM | IC50 (second compound 0.1 µM): 110 nM | IC50 (second compound 0.316 µM): 78.4 nM | IC50 (second compound 1 µM): 81.4 nM | IC50 (second compound 3.16 µM): 30.5 nM | IC50 (second compound 10 µM): 51.5 nM | viability, T/C (second compound 0.0316 µM, first compound 0.00949 µM): 82.2% | viability, T/C (second compound 0.0316 µM, first compound 0.03 µM): 63.5% | viability, T/C (second compound 0.0316 µM, first compound 0.0949 µM): 43.2% | viability, T/C (second compound 0.0316 µM, first compound 0.3 µM): 34.5% | viability, T/C (second compound 0.0316 µM, first compound 0.949 µM): 27.5% | viability, T/C (second compound 0.0316 µM, first compound 3 µM): 21.8% | viability, T/C (second compound 0.1 µM, first compound 0.00949 µM): 76% | viability, T/C (second compound 0.1 µM, first compound 0.03 µM): 71.7% | viability, T/C (second compound 0.1 µM, first compound 0.0949 µM): 47.4% | viability, T/C (second compound 0.1 µM, first compound 0.3 µM): 38.2% | viability, T/C (second compound 0.1 µM, first compound 0.949 µM): 30.9% | viability, T/C (second compound 0.1 µM, first compound 3 µM): 20.8% | viability, T/C (second compound 0.316 µM, first compound 0.00949 µM): 73.5% | viability, T/C (second compound 0.316 µM, first compound 0.03 µM): 70.4% | viability, T/C (second compound 0.316 µM, first compound 0.0949 µM): 41.4% | viability, T/C (second compound 0.316 µM, first compound 0.3 µM): 35.4% | viability, T/C (second compound 0.316 µM, first compound 0.949 µM): 22.3% | viability, T/C (second compound 0.316 µM, first compound 3 µM): 20% | viability, T/C (second compound 1 µM, first compound 0.00949 µM): 73.9% | viability, T/C (second compound 1 µM, first compound 0.03 µM): 65.6% | viability, T/C (second compound 1 µM, first compound 0.0949 µM): 47.7% | viability, T/C (second compound 1 µM, first compound 0.3 µM): 30.9% | viability, T/C (second compound 1 µM, first compound 0.949 µM): 26.2% | viability, T/C (second compound 1 µM, first compound 3 µM): 22.6% | viability, T/C (second compound 3.16 µM, first compound 0.00949 µM): 51% | viability, T/C (second compound 3.16 µM, first compound 0.03 µM): 56.6% | viability, T/C (second compound 3.16 µM, first compound 0.0949 µM): 38.6% | viability, T/C (second compound 3.16 µM, first compound 0.3 µM): 30.6% | viability, T/C (second compound 3.16 µM, first compound 0.949 µM): 27.4% | viability, T/C (second compound 3.16 µM, first compound 3 µM): 16% | viability, T/C (second compound 10 µM, first compound 0.00949 µM): 65.2% | viability, T/C (second compound 10 µM, first compound 0.03 µM): 59.6% | viability, T/C (second compound 10 µM, first compound 0.0949 µM): 39.4% | viability, T/C (second compound 10 µM, first compound 0.3 µM): 25.6% | viability, T/C (second compound 10 µM, first compound 0.949 µM): 22.6% | viability, T/C (second compound 10 µM, first compound 3 µM): 17.6%
